Assay results published in BigSolDB 2.1.

Cc1cnc(NC(=O)C2=C(O)c3ccccc3S(=O)(=O)N2C)s1
solubility (mole fraction)
Conditions | 293.15 K | 298.15 K | 303.15 K | 308.15 K | 313.15 K
in transcutol | 0.0012 | 0.0013 | 0.0014 | 0.00151 | 0.00165
in water | 1.09e-06 | 1.14e-06 | 1.19e-06 | 1.26e-06 | 1.33e-06
